The source of these data is US12606568B2, “SMARCA degraders and uses thereof” (Kymera Therapeutics, Inc., priority 2020, dated 2026).

Holding throughout (type): cell-based
The target in test [1] is T1, SMARCA2 (Homo sapiens, UniProt P51531). Put plainly: SMARCA2 Western blot MV4-11 degradation. Details: SMARCA2 and SMARCA4 protein degradation in MV4-11 cells; endogenous in cells; host or cells: MV4-11. The conditions noted are these: for SMARCA2 MSD MV411 degradation 24 h: average Dmax % / DC50: MV4-11 cells; for DC50 / Dmax: 24 h; for DC50: read-out: SMARCA2 MSD MV411 degradation 24 h: Mean external-Abs DC50; for Dmax: MV4-11, MV4-11 cells, read-out: SMARCA2 MSD MV411 degradation 24 h: average Dmax %.
T1 sequence (P51531 whole entry): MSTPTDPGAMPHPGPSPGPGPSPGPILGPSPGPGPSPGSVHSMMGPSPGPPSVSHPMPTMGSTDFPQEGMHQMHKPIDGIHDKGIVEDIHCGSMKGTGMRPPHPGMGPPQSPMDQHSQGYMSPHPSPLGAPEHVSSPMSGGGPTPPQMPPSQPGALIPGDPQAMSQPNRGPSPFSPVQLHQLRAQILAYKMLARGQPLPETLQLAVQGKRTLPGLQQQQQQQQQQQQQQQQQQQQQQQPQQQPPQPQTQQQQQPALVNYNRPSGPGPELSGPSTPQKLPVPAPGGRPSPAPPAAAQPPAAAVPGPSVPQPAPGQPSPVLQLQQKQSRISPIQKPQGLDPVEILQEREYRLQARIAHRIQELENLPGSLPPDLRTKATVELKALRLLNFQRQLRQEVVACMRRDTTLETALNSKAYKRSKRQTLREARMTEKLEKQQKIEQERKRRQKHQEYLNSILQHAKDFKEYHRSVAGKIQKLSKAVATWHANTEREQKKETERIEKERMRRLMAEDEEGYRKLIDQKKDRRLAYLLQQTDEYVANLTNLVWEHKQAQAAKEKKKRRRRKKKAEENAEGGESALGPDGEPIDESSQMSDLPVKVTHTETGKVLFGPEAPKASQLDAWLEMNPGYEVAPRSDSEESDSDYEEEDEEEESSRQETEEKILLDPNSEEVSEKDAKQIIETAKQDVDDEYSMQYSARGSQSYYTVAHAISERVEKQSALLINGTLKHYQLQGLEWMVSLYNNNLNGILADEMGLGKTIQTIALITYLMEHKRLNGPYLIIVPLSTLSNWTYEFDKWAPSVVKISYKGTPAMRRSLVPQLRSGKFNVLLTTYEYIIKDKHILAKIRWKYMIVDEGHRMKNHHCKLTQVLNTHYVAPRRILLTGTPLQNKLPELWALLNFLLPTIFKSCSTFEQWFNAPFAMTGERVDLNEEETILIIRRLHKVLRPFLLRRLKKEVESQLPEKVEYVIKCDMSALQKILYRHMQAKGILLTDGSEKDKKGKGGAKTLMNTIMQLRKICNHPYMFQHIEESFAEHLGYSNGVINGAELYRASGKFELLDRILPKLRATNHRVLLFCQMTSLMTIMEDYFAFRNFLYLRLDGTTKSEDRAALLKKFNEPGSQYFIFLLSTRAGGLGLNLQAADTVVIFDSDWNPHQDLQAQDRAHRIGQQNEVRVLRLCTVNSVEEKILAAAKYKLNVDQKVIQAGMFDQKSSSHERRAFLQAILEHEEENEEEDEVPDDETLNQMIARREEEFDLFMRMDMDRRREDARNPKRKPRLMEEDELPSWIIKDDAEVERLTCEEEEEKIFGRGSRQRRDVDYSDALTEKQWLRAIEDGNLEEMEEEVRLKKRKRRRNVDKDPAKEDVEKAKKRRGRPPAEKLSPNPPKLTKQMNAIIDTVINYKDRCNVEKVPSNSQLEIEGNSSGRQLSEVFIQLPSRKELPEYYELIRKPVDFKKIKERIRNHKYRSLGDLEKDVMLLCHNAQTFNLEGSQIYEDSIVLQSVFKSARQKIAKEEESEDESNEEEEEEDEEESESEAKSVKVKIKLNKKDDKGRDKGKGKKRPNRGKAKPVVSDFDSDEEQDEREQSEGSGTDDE

The target of test [2] is T2, SMARCA4 (Homo sapiens, UniProt P51532).
T2 construct: SMARCA2 and SMARCA4 protein degradation in MV4-11 cells; endogenous in cells; host or cells: MV4-11
T2 sequence (P51532 whole entry): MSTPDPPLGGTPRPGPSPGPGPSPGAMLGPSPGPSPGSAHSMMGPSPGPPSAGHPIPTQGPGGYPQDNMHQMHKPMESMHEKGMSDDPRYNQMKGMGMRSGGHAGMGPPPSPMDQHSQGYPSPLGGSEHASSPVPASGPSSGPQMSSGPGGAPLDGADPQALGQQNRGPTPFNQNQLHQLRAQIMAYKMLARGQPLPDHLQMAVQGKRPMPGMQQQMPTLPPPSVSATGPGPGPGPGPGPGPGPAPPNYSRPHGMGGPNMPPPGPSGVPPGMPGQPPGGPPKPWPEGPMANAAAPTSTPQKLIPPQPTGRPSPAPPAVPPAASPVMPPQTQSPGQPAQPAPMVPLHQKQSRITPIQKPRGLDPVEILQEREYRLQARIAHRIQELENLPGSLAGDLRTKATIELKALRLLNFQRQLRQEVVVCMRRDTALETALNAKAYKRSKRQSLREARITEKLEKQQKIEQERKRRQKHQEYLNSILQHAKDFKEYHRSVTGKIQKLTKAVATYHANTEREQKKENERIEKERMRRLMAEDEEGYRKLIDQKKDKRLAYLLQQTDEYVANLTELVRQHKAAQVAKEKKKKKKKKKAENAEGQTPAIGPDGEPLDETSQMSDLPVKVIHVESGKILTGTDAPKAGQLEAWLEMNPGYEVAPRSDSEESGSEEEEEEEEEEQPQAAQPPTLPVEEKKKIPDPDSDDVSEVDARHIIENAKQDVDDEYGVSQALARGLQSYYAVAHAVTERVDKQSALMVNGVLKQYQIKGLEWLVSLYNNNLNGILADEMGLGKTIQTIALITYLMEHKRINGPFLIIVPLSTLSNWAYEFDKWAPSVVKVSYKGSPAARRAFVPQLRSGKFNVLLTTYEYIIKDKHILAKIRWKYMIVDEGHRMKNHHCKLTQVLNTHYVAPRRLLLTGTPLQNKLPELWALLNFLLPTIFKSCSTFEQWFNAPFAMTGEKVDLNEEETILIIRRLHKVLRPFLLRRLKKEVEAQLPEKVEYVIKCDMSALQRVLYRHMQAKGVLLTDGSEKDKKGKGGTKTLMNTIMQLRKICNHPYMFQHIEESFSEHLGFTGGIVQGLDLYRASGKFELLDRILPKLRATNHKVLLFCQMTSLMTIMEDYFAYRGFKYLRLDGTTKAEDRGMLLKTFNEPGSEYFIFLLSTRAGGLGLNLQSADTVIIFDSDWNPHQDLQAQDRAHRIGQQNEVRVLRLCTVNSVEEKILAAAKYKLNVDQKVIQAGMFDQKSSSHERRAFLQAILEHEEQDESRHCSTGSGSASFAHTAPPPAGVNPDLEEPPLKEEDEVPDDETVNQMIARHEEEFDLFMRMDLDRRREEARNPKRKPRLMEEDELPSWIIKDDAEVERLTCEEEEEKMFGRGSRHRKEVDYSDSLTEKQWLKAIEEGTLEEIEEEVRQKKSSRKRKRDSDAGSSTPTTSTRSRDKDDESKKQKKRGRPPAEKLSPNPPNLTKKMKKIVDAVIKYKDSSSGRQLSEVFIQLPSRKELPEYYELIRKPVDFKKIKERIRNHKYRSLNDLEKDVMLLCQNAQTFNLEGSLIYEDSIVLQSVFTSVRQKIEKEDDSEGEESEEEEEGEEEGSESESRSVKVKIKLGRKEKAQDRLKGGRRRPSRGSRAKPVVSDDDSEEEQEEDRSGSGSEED
Put plainly: SMARCA4 Western blot MV4-11 degradation. The conditions noted are these: for SMARCA4 MSD MV411 degradation 24 h: average Dmax % / DC50: MV4-11 cells; for DC50 / Dmax: 24 h; for DC50: read-out: SMARCA4 MSD MV411 degradation 24 h: Mean external-Abs DC50; for Dmax: MV4-11, MV4-11 cells, read-out: SMARCA4 MSD MV411 degradation 24 h: average Dmax %. (In general: Immunoblotting shows a protein as a band on a membrane.)

Test [3] concerns the target T1, SMARCA2. Briefly: MSD SMARCA2 degradation in A549 cell line. Details: endogenous in cells. The conditions noted are these: for SMARCA2 MSD A549 degradation 24 h: Average Dmax % / DC50: A549 cells; for DC50 / Dmax: 24 h; for DC50: read-out: SMARCA2 MSD A549 degradation 24 h: Average external-Abs DC50; for Dmax: A549, A549 cells. The method, boiled down:
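A549 cells treated 24 h with compound, 3-fold series 1000 nM down to 0.152 nM plus DMSO. RIPA lysates captured on MSD plates, probed with rabbit anti-SMARCA2/BRM (1 µg/ml) then SULFO-TAG anti-rabbit, electrochemiluminescence read. DC50 and 24 h Dmax reported as letter bins.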

As to `Cc1ncsc1-c1ccc([C@H](C)NC(=O)[C@@H]2C[C@@H](O)CN2C(=O)[C@@H](NC(=O)[C@H]2CCC3(CC2)C[C@H](N2CCC(c4cnc(N5C6CCC5CN(c5cc(-c7ccccc7O)nnc5N)C6)nc4)CC2)C3)C(C)(C)C)cc1` (stereo partly drawn) [I-16, (2S,4R)-1-((2S)-2-(2-(4-(2-(3-(3-amino-6-(2-hydroxyphenyl)pyridazin-4-yl)-3,8-diazabicyclo[3.2.1]octan-8-yl)pyrimidin-5-yl)piperidin-1-yl)spiro[3.5]nonane-7-carboxamido)-3,3-dimethylbutanoyl)-4-hydroxy-N—((S)-1-(4-(4-methylthiazol-5-yl)phenyl)ethyl)pyrrolidine-2-carboxamide], in test [1], the “SMARCA2 MSD MV411 degradation 24 h: average Dmax %” value was “A (A (>90% degradation))” and the half-maximal degradation concentration (DC50) was below 0.1 µM. Moreover, in test [2], the “SMARCA4 MSD MV411 degradation 24 h: average Dmax %” value was “B (B (>70-90% degradation))” and the 50% degradation concentration (DC50) was below 0.1 µM. In test [3], the “SMARCA2 MSD A549 degradation 24 h: Average Dmax %” value is “A (A (>90% o degradation))” and the 50% degradation concentration (DC50) was 0.1 to 0.5 µM.
As for `Cc1ncsc1-c1ccc([C@H](C)NC(=O)[C@@H]2C[C@@H](O)CN2C(=O)[C@@H](NC(=O)[C@H]2CCC3(CC2)C[C@H](N2CCC(c4cnc(N5C6CCC5CN(c5cc(-c7ccccc7O)nnc5N)C6)nc4)CC2)C3)C(C)(C)C)cc1` (stereo in doubt) [I-15, (2S,4S)-1-((2S)-2-(2-(4-(2-(3-(3-amino-6-(2-hydroxyphenyl)pyridazin-4-yl)-3,8-diazabicyclo[3.2.1]octan-8-yl)pyrimidin-5-yl)piperidin-1-yl)spiro[3.5]nonane-7-carboxamido)-3,3-dimethylbutanoyl)-4-hydroxy-N—((S)-1-(4-(4-methylthiazol-5-yl)phenyl)ethyl)pyrrolidine-2-carboxamide], the maximal degradation (Dmax) in test [1] was above 90%; in test [2], 50 to 70%; in test [3], above 90%. Further, the results for the DC50 in test [1], in test [2] and in test [3] were below 0.1 µM, above 1 µM and 0.1 to 0.5 µM, respectively.
`Cc1nccn1-c1ccc(CNC(=O)[C@@H]2C[C@@H](O)CN2C(=O)[C@@H](NC(=O)[C@H]2CC3(C2)C[C@H](N2CCC(c4cnc(N5C6CCC5CN(c5cc(-c7ccccc7O)nnc5N)C6)nc4)CC2)C3)C(C)(C)C)cc1` (stereo partly drawn) [I-33, (2S,4R)-1-((2S)-2-(6-(4-(2-(3-(3-amino-6-(2-hydroxyphenyl)pyridazin-4-yl)-3,8-diazabicyclo[3.2.1]octan-8-yl)pyrimidin-5-yl)piperidin-1-yl)spiro[3.3]heptane-2-carboxamido)-3,3-dimethylbutanoyl)-4-hydroxy-N-(4-(2-methyl-1H-imidazol-1-yl)benzyl)pyrrolidine-2-carboxamide]: the Dmax in test [1], in test [2] and in test [3] was below 50% throughout. Besides, the half-maximal degradation concentration (DC50) was 0.1 to 0.5 µM in test [1] and above 1 µM in test [2].
With `Cc1ncsc1-c1ccc(CNC(=O)[C@@H]2C[C@@H](O)CN2C(=O)[C@@H](NC(=O)[C@H]2CCC3(CC2)C[C@H](N2CCC(c4cnc(N5C6CCC5CN(c5cc(-c7ccccc7O)nnc5N)C6)nc4)CC2)C3)C(C)(C)C)cc1` (stereo partly drawn) [I-42, (2S,4R)-1-((2S)-2-(2-(4-(2-(3-(3-amino-6-(2-hydroxyphenyl)pyridazin-4-yl)-3,8-diazabicyclo[3.2.1]octan-8-yl)pyrimidin-5-yl)piperidin-1-yl)spiro[3.5]nonane-7-carboxamido)-3,3-dimethylbutanoyl)-4-hydroxy-N-(4-(4-methylthiazol-5-yl)benzyl)pyrrolidine-2-carboxamide], the Dmax was 70 to 90% in test [1], below 50% in test [2] and 70 to 90% in test [3]. Also, the DC50 is below 0.1 µM in test [1], above 1 µM in test [2] and 0.1 to 0.5 µM in test [3].
`Cc1ncsc1-c1ccc(CNC(=O)[C@@H]2C[C@@H](O)CN2C(=O)[C@@H](NC(=O)[C@H]2CC3(C2)C[C@H](N2CCC(c4ccc(N5C6CCC5CN(c5cc(-c7ccccc7O)nnc5N)C6)cc4)CC2)C3)C(C)(C)C)cn1` (stereo partly drawn) [I-27, (2S,4R)-1-((2S)-2-(6-(4-(4-(3-(3-amino-6-(2-hydroxyphenyl)pyridazin-4-yl)-3,8-diazabicyclo[3.2.1]octan-8-yl)phenyl)piperidin-1-yl)spiro[3.3]heptane-2-carboxamido)-3,3-dimethylbutanoyl)-4-hydroxy-N-((6-(4-methylthiazol-5-yl)pyridin-3-yl)methyl)pyrrolidine-2-carboxamide]: the Dmax in test [1], in test [2] and in test [3] was below 50% throughout. Further, the results for the DC50 in test [1], in test [2] and in test [3] were 0.1 to 0.5 µM, above 1 µM and above 1 µM, respectively.
For the compound `Cc1ncsc1-c1ccc(C2(NC(=O)[C@@H]3C[C@@H](O)CN3C(=O)[C@@H](NC(=O)[C@H]3CC4(C3)C[C@H](N3CCC(c5cnc(N6C7CCC6CN(c6cc(-c8ccccc8O)nnc6N)C7)nc5)CC3)C4)C(C)(C)C)CC2)cc1` (single isomer, unassigned) [I-3], the Dmax in test [1] was above 90%; in test [2], 70 to 90%; in test [3], above 90%. The DC50 in test [1], in test [2] and in test [3] was below 0.1 µM throughout.
Consider `Cc1ncsc1-c1ccc(CNC(=O)[C@@H]2C[C@@H](O)CN2C(=O)[C@@H](NC(=O)[C@H]2CC3(CC[C@H](N4CCC(c5cnc(N6C7CCC6CN(c6cc(-c8ccccc8O)nnc6N)C7)nc5)CC4)CC3)C2)C(C)(C)C)cc1` (stereo partly drawn) [I-14, (2S,4R)-1-((2S)-2-(7-(4-(2-(3-(3-amino-6-(2-hydroxyphenyl)pyridazin-4-yl)-3,8-diazabicyclo[3.2.1]octan-8-yl)pyrimidin-5-yl)piperidin-1-yl)spiro[3.5]nonane-2-carboxamido)-3,3-dimethylbutanoyl)-4-hydroxy-N-(4-(4-methylthiazol-5-yl)benzyl)pyrrolidine-2-carboxamide], for which, in test [1], the “SMARCA2 MSD MV411 degradation 24 h: average Dmax %” value is listed as “B (B (>70-90% degradation))” and the half-maximal degradation concentration (DC50) is below 0.1 µM. Moreover, in test [2], the “SMARCA4 MSD MV411 degradation 24 h: average Dmax %” value was “B (B (>70-90% degradation))” and the half-maximal degradation concentration (DC50) was above 1 µM. Besides, in test [3], the “SMARCA2 MSD A549 degradation 24 h: Average Dmax %” value was “B (B (>70-90% o degradation))” and the half-maximal degradation concentration (DC50) is below 0.1 µM.

Broadly, the DC50 is the concentration giving 50% degradation. What is called Dmax is the greatest extent of degradation seen.
